According to ChEMBL document CHEMBL5260813, “An overview on the recent developments of 1,2,4-triazine derivatives as anticancer compounds” (Eur J Med Chem, 2017):

How the values were obtained:
[1] = Ratio of IC50 for antiproliferative activity against human Bel-7402 cells assessed as inhibition of cell growth under normoxia condition to IC50 for antiproliferative activity against human Bel-7402 cells assessed as inhibition of cell growth under hypoxia condition; type: functional
[2] = Ratio of IC50 for antiproliferative activity against human Eca-109 cells assessed as inhibition of cell growth under normoxia condition to IC50 for antiproliferative activity against human Eca-109 cells assessed as inhibition of cell growth under hypoxia condition; type: functional
[3] = Ratio of IC50 for antiproliferative activity against human MCF7 cells assessed as inhibition of cell growth under normoxia condition to IC50 for antiproliferative activity against human MCF7 cells assessed as inhibition of cell growth under hypoxia condition; type: functional
[4] = tested on: MCF7; experiment: Antiproliferative activity against human MCF7 cells assessed as inhibition of cell growth under hypoxic condition by MTT assay; type: functional, cell-based
[5] = tested on: HCT-116; experiment: Antiproliferative activity against human HCT-116 cells assessed as inhibition of cell growth under hypoxic condition by MTT assay; type: functional, cell-based
[6] = tested on: NCI-H460; experiment: Antiproliferative activity against human NCI-H460 cells assessed as inhibition of cell growth under hypoxic condition by MTT assay; type: functional, cell-based
[7] = tested on: MCF7; experiment: Antiproliferative activity against human MCF7 cells assessed as inhibition of cell growth measured after 72 hrs by fluorescence based assay; type: functional; conditions: MCF7, 72 h
[8] = tested on: K562; experiment: Antiproliferative activity against human K562 cells assessed as inhibition of cell growth measured after 72 hrs by fluorescence based assay; type: functional; conditions: K562, 72 h
[9] = Ratio of IC50 for antiproliferative activity against human HL-60 cells assessed as inhibition of cell growth under normoxia condition to IC50 for antiproliferative activity against human HL-60 cells assessed as inhibition of cell growth under hypoxia condition; type: functional
[10] = Ratio of IC50 for antiproliferative activity against human PC-3 cells assessed as inhibition of cell growth under normoxia condition to IC50 for antiproliferative activity against human PC-3 cells assessed as inhibition of cell growth under hypoxia condition; type: functional

SMILES	Ratio IC50 [1]	Ratio IC50 [2]	Ratio IC50 [3]	IC50 [4] [µM]	IC50 [5] [µM]	IC50 [6] [µM]	Ratio IC50 [9]	Ratio IC50 [10]	other results
O=[N+]([O-])c1ccc2c(c1)[n+]([O-])nc(Nc1ccccc1)[n+]2[O-]	1.44	1.47	1.61	–	–	–	–	–	–
NCCCCCCCNc1n[n+]([O-])c2ccccc2[n+]1[O-]	–	–	–	11.7	11.7	11.7	–	–	–
NCCNc1n[n+]([O-])c2ccccc2[n+]1[O-]	–	–	–	11.7	11.7	11.7	–	–	–
O=C(NCCCCCCCCNc1n[n+]([O-])c2ccccc2[n+]1[O-])C(F)(F)F	–	–	–	11.7	11.7	11.7	–	–	–
NCCCCCNc1n[n+]([O-])c2ccccc2[n+]1[O-]	–	–	–	11.7	11.7	11.7	–	–	–
O=C(NCCCCCCNc1n[n+]([O-])c2ccccc2[n+]1[O-])C(F)(F)F	–	–	–	11.7	11.7	11.7	–	–	–
CNc1nc(=O)n(-c2ccccc2)nc1-c1ccccc1O	–	–	–	–	–	–	–	–	IC50 [7]: 3.5 µM; IC50 [8]: 3.5 µM
O=c1nc(NC2CCCCC2)c(-c2ccccc2O)nn1-c1ccccc1	–	–	–	–	–	–	–	–	IC50 [7]: 3.5 µM; IC50 [8]: 3.5 µM
[O-][n+]1nc(NCCCNc2n[n+]([O-])c3ccccc3[n+]2[O-])nc2ccccc21	–	–	–	11.7	11.7	11.7	–	–	–
COc1ccc2c(c1)[n+]([O-])nc(NCC1CCCCC1)[n+]2[O-]	2	1.3	2.4	–	–	–	2.4	1	–
CCNc1n[n+]([O-])c2cc(C)ccc2[n+]1[O-]	1.74	1.4	2.7	–	–	–	1	2.1	–
CCCCCCNc1n[n+]([O-])c2ccccc2[n+]1[O-]	–	1.7	1.3	–	–	–	2.8	1.19	–
NCCCCCCCCNc1n[n+]([O-])c2ccccc2[n+]1[O-]	–	–	–	11.7	11.7	11.7	–	–	–
O=c1nc(Nc2ccccc2)c(-c2ccccc2O)nn1-c1ccccc1	–	–	–	–	–	–	–	–	IC50 [7]: 3.5 µM; IC50 [8]: 3.5 µM
NCCCNc1n[n+]([O-])c2ccccc2[n+]1[O-]	–	–	–	11.7	11.7	11.7	–	–	–
Cc1ccc2c(c1)[n+]([O-])nc(NCc1ccccc1)[n+]2[O-]	2.54	8.77	3.79	–	–	–	1.21	2.4	–

SMILES	Ratio IC50 [1]	Ratio IC50 [2]	Ratio IC50 [3]	IC50 [4] [µM]	IC50 [5] [µM]	IC50 [6] [µM]	Ratio IC50 [9]	Ratio IC50 [10]	other results
O=c1nc(NCCCCCCNc2nc(=O)n(-c3ccccc3)nc2-c2c(O)ccc3ccccc23)c(-c2c(O)ccc3ccccc23)nn1-c1ccccc1	–	–	–	–	–	–	–	–	IC50 [7]: 3.5 µM; IC50 [8]: 3.5 µM
COc1ccc2c(c1)[n+]([O-])nc(NC1CCCCC1)[n+]2[O-]	1.6	2	2.8	–	–	–	2.2	–	–
CCCCCCNc1n[n+]([O-])c2cc(C)ccc2[n+]1[O-]	–	4.7	1.3	–	–	–	2.9	1.3	–
NNc1nc(=O)n(-c2ccccc2)nc1-c1ccccc1O	–	–	–	–	–	–	–	–	IC50 [7]: 3.5 µM; IC50 [8]: 3.5 µM
O=c1nc(NCCCCCN(CCCNc2nc(=O)n(-c3ccccc3)nc2-c2ccccc2O)c2nc(=O)n(-c3ccccc3)nc2-c2ccccc2O)c(-c2ccccc2O)nn1-c1ccccc1	–	–	–	–	–	–	–	–	IC50 [7]: 3.5 µM; IC50 [8]: 3.5 µM
CCCCCCNc1n[n+]([O-])c2cc(Cl)ccc2[n+]1[O-]	1.6	2.6	2.1	–	–	–	4	1.4	–
NCCNc1nc(=O)n(-c2ccccc2)nc1-c1ccccc1O	–	–	–	–	–	–	–	–	IC50 [7]: 3.5 µM; IC50 [8]: 3.5 µM
O=[N+]([O-])c1ccc2c(c1)[n+]([O-])nc(NCc1ccccc1)[n+]2[O-]	1.17	1.45	1.2	–	–	–	1.09	1.89	–
NCCCCCCNc1n[n+]([O-])c2ccccc2[n+]1[O-]	–	–	–	11.7	11.7	11.7	–	–	–
O=c1nc(NNc2ccccc2)c(-c2ccccc2O)nn1-c1ccccc1	–	–	–	–	–	–	–	–	IC50 [7]: 3.5 µM; IC50 [8]: 3.5 µM
O=C(NCCCCCCCNc1n[n+]([O-])c2ccccc2[n+]1[O-])C(F)(F)F	–	–	–	11.7	11.7	11.7	–	–	–
Cc1ccc2c(c1)[n+]([O-])nc(NC1CCCCC1)[n+]2[O-]	1.1	2.5	2	–	–	–	7.9	1.2	–
CCCCCCNc1n[n+]([O-])c2cc([N+](=O)[O-])ccc2[n+]1[O-]	1.5	1.5	–	–	–	–	–	1.6	–
NC(=O)NNc1nc(=O)n(-c2ccccc2)nc1-c1ccccc1O	–	–	–	–	–	–	–	–	IC50 [7]: 3.5 µM; IC50 [8]: 3.5 µM
O=C(NCCNc1n[n+]([O-])c2ccccc2[n+]1[O-])C(F)(F)F	–	–	–	11.7	11.7	11.7	–	–	–
Nc1n[n+]([O-])c2ccccc2[n+]1[O-] [TIRAPAZAMINE]	1.8	6.6	1.7	–	–	–	1.1	3.8	–
